Data taken from patent US10738044B2, “Therapeutic compound and use in therapy” (PROXIMAGEN, LLC, priority 2015, dated 2020).

Key:
[1] = system: male DBA/1J mice, collagen-induced arthritis; test: Established mouse collagen-induced arthritis model; type: in vivo
Experimental: Example 1 was assessed in an established mouse collagen-induced arthritis model. Disease was induced in male DBA/1J mice by means of a subcutaneous injection of a collagen (bovine)/CFA emulsion at the base of the tail. Each paw was scored daily and the sum of all four scores was recorded as the Arthritic Index (AI). The maximum possible AI was 16 (0=no visible effects of arthritis, 1=edema and/or erythema of one digit, 2=edema and/or erythema of 2 joints, 3=edema and/or erythema of more than 2 joints, 4=severe arthritis of the entire paw and digits including limb deformation and ankylosis of the joint). As animals developed disease, they were sorted into treatment groups with AI in the range of 2-6 and an average group AI of 3.6 prior to initiation of the dosing regimen. Example 1 (10, 50 and 100 mg/kg) was administered orally twice daily from day 30 post-inoculation.
Histological evaluation of the rear right hind limbs was also carried out. The joints were scored for severity of arthritis (inflammation, pannus, cartilage damage and bone damage) by a board certified pathologist, who was blind to the assigned treatment.

[2] = system: DSS-treated mice, established colitis; test: Chronic DSS-induced colitis mouse model; type: in vivo
Experimental: Example 1 was assessed in the treatment of established disease in the chronic Dextran Sulphate (DSS)-induced colitis model. DSS was administered in the drinking water as a 3% solution for five days. DSS-treated mice were orally administered vehicle, 6-Thioguanine (0.5 mg/kg) or Example 1 (10 mg/kg, 30 mg/kg or 100 mg/kg) b.i.d. from Days 6 to 19. A no treatment control group of 5 mice was also used. Body weights were measured daily for 19 days and animals were assessed visually for the presence of diarrhea and/or bloody stool. All animals underwent video endoscopy on Days 5 (baseline), 12 and 19 to assess the extent of colitis and whether any beneficial treatment effects could be observed. All animals were euthanized on Day 19 to obtain colon tissues for pathology examination.

[3] = system: female SJL mice, experimental allergic encephalomyelitis; test: Mouse PLP139-151 relapsing-remitting EAE model; type: in vivo; settings: 3, 10, 30 or 100 mg/kg orally twice daily, therapeutic; FIG. 7
Experimental: Example 1 was assessed in a PLP139-151 remitting and relapsing model of experimental allergic encephalomyelitis (EAE) in female SJL mice as an indicator of a potential treatment for multiple sclerosis in humans.
Adjuvant was prepared by homogenizing 100 mg Mycobacterium tuberculosis H37 RA in 50 mL Incomplete Freund's Adjuvant to prepare a 2 mg/mL suspension which was stored at 4-8° C. 50 ug pertussis toxin from Bordetella pertussis was reconstituted in 50 mL sterile PBS to prepare a 1 ug/mL solution which was kept in an ice bath. 10.35 mg PLP139-151 was dissolved in 10.35 mL sterile PBS to prepare a 1 mg/mL solution. 10 mL of PLP139-151 was emulsified with 10 mL adjuvant in ten batches in an ice bath to prepare a 0.5 mg/mL PLP139-151/1 mg/mL M. tuberculosis H37 RA emulsion which was kept in an ice bath. […] On day 0, 70 mice were injected subcutaneously in both flanks with 0.1 mL of the PLP139-151/CFA emulsion. Two hours later the mice were injected by intraperitoneal route with 0.2 mL pertussis toxin (200 ng/mouse). The mice were returned to routine maintenance with no adverse effects. On day 2, the mice were injected IP with 0.2 mL of pertussis toxin (200 ng/mouse). From day 7 the mice were weighed and scored for signs of disease as follows: 0=no obvious signs of motor dysfunction compared to non-immunized control; 1=limp or floppy tail; 2=limp tail and weakness in hind legs; 3=limp tail and complete paralysis of legs or limp tail with paralysis of one front and one hind leg; 4=limp tail, complete hind leg and partial front leg paralysis; 5=complete hind and complete front leg paralysis. On days 10-12, the mice were sorted into treatment groups based upon average score and twice daily oral administration of Example 1 (3, 10, 30 or 100 mg/kg), dexamethasone or vehicle (n=10 per group) was initiated. The disease score was monitored for 20 days.

[4] = system: female C57BL/6 mice, CCl4-induced liver fibrosis; test: Carbon tetrachloride induced liver fibrosis model; type: in vivo, mouse; settings: 100 mg/kg bid orally for 28 days; FIG. 8
Experimental: Example 1 was assessed in a carbon tetrachloride (CCl4)-induced Liver Fibrosis Model. 7 week old female C57BL/6 mice were divided into four groups (n=5/group for one Control group to act as non-disease comparator and n=10/group for three CCl4-treated groups based on their body weight the day before the start of the treatment. Thirty mice were intraperitoneally administered 5% CCl4 in mineral oil at a volume of 100 uL twice a week (days 0, 4, 11, 14, 18, 21 and 25). Five mice intraperitoneally administered mineral oil instead of the 5% CCl4, served as the non-diseased control group. Example 1 (100 mg/kg bid), Valsartan (20 mg/kg qd, positive control) and Vehicle were administered orally (dose volume=10 mL/kg) for 28 days (days −1 to 27). […] For quantitative analysis of fibrosis area, bright field images of Sirius red-stained section was blindly captured using a digital camera at 100-fold magnification, and the Sirius red-stained positive areas in 5 fields/4 um section/mouse were measured using ImageJ software (National Institute of Health, USA) and in accordance with the following expression: (collagen area/total area-vascular lumen area)×100. […] Results were expressed as mean±SD. Comparison of the Valsartan group and Vehicle group in fibrosis area was assessed with student's t-test to confirm whether Valsartan worked as a positive control.

[5] = system: serum TNFα in female Swiss Webster mice; test: Murine model of LPS-induced cytokine release; type: in vivo, mouse; settings: oral administration one hour prior to LPS challenge; serum one hour after LPS; FIG. 9
Experimental: Example 1 was assessed in an LPS-induced cytokine release assay. One hour after administration of Example 1, female Swiss Webster mice (n=5 per group) were injected intraperitoneally with 2 mL/kg LPS (1.5 mg/mL). One hour after LPS injection the mice were anesthetized and exsanguinated into pre-chilled serum separator microtainer tubes. The blood was processed to serum which was stored at −80° C. The frozen serum aliquots were thawed to room temperature, diluted 1:5 with sterile saline and assayed by ELISA for TNFα.

[6] = system: C57BL6 mice, laser-induced choroidal burns; test: Mouse choroidal neovascularisation model; type: in vivo; settings: topical 5 uL instillations tid days 0 to 12; day 12; FIG. 10
Experimental: Example 1 was assessed in a mouse choroidal neovascularisation model. Pigmented mice (C57BL6 strain, n=15 per group) each were induced with 3 choroidal burns in the right eyes using a 532 nm photocoagulator. Example 1 and vehicle were dosed topically using 5 uL instillations tid from days 0 to 12. On day 12, lesion size was determined by isolectine B4 immunostaining on flatmount choroids from the treated eyes and confocal microscopy for determining the size of the lesion.

[7] = system: C57BL/10ScSn-Dmdx/J male mice; test: Murine model of Duchenne's muscular dystrophy (mdx mice); type: in vivo, mouse; settings: 100 mg/kg po bid for 4 weeks; FIG. 11
Experimental: C57BL/10ScSn-Dmdx/J male mice were dosed from 27 days for 4 weeks with either vehicle (n=5), prednisolone (1 mg/kg ip qd, n=8) or Example 1 (100 mg/kg po bid, n=8). At 8 weeks of age, blood was collected by retro-orbital bleeding, and mice were humanely euthanized by CO2 asphyxiation. One triceps surae was collected fresh and processed for immune cell sorting, one tibialis anterior was preserved in RNALater for RNA extraction, one whole hind limb and the diaphragm were fixed in 2% paraformaldehyde overnight at 4° C. for paraffin embedding and histology stains. Serum was prepared immediately after collection and frozen at −20° C. At the end of the study, all serum samples were dosed for Creatine Kinase on a Beckman Coulter AU Clinical Chemistry analyzer following manufacturer instructions (a modification of the International Federation of Clinical Chemistry method).
For immune cell sorting, muscle samples were enzymatically and mechanically dissociated following manufacturer instructions (Skeletal Muscle Dissociation KitCatalog no. 130-098-305, Miltenyi Biotec). Cells were stained with the following antibodies:
Stained cells were analyzed on a BD LSR II cytometer and counts of different populations were expressed in percentage of the number of live cells counted. Total RNAs were extracted with a modification of the Trizol method, reverse transcribed, and mRNAs of TGFα, and the following inflammation markers were quantified by the SYBR green method with GAPDH as a normalizer: […]

[8] = 100 mg/kg orally twice daily, rear right hind limbs, FIG. 2

CC(C)[C@H]1c2[nH]cnc2CCN1C(=O)OCc1ccc(OCCCN(C)C)cc1 [Example 1, {4-[3-(Dimethylamino)propoxy]phenyl}methyl (4S)-4-(propan-2-yl)-3H,4H,5H,6H,7H-imidazo[4,5-c]pyridine-5-carboxylate]
reduction in disease severity (Arthritic Index) ([1]; 100 mg/kg orally twice daily, after two weeks of therapy, FIG. 1): 46% | inhibition of bone resorption (joint histology) [1, 8]: 84% | inhibition of cartilage damage (joint histology) [1, 8]: 60% | inhibition of inflammation (joint histology) [1, 8]: 60% | inhibition of pannus formation (joint histology) [1, 8]: 84% | rate of disease development (Arthritic Index) ([1]; 10, 50 and 100 mg/kg orally twice daily from day 30 post-inoculation, FIG. 1): dose-dependent decrease in the rate of disease development | magnitude of the effect relative to positive control 6-Thioguanine (0.5 mg/kg) ([2]; 100 mg/kg orally b.i.d.): comparable to the effect seen with the positive control | overall body weight ([2]; 100 mg/kg orally b.i.d., FIG. 3): statistically significant effects | endoscopy scores on day 12 ([2]; 100 mg/kg orally b.i.d., FIG. 4): statistically significant effects | colon weight ([2]; 100 mg/kg orally b.i.d., FIG. 5): statistically significant effects | diarrhea ([2]; 100 mg/kg orally b.i.d., FIG. 6): statistically significant effects | overall effect in the DSS colitis model ([2]; 10, 30 or 100 mg/kg orally b.i.d., Days 6 to 19): dose-dependent improvement | disease severity (EAE score) [3]: decrease in disease severity | time to disease relapse [3]: increased time to disease relapse | time to disease remission [3]: dose-dependent decrease in the time to disease remission | deposition of collagen in the liver (Sirius red staining) [4]: significantly reduced | serum TNFα levels relative to vehicle control [5]: statistically significant dose-dependent decrease | lesion size versus vehicle [6]: significant reduction | B cells [7]: significant reduction | T cells [7]: significant reduction | TGFβ [7]: significant reduction | cytokines [7]: significant reduction | macrophages [7]: significant reduction | pro-inflammatory monocytes [7]: significant reduction
